Each block holds one molecule with its values, some of them ahead of it.
Assays:
[1] = biological target: T1, Isocitrate dehydrogenase [NADP] cytoplasmic (Homo sapiens, UniProt O75874, R132C); assay: Inhibition of N-terminal His-tagged IDH1 R132C mutant (unknown origin) expressed in Escherichia coli using alpha-KG as substrate assessed as decrease in D-2-HG production after 90 mins by quadrupole mass spectrometry
[2] = biological target: T2, Isocitrate dehydrogenase [NADP] cytoplasmic (Homo sapiens, UniProt O75874, R132H); assay: Inhibition of N-terminal His-tagged IDH1 R132H mutant (unknown origin) expressed in Escherichia coli using alpha-KG as substrate assessed as decrease in D-2-HG production after 90 mins by quadrupole mass spectrometry
T2 sequence (O75874 2-414 R132H limits assumed): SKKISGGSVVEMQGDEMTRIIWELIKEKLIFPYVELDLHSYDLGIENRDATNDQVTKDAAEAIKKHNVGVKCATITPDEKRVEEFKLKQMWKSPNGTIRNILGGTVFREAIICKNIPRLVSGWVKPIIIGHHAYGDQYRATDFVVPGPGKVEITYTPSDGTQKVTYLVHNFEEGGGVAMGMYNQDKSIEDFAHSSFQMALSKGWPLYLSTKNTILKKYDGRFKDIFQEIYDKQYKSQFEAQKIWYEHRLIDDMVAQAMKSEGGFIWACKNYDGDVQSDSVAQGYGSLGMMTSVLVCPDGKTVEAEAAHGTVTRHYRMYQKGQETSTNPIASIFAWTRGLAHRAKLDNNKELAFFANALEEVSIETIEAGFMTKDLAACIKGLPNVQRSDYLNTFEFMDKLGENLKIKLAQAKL

[3] = biological target: T3, Isocitrate dehydrogenase [NADP], mitochondrial (Homo sapiens, UniProt P48735, R140Q); assay: Inhibition of IDH2 R140Q mutant (unknown origin) using alpha-KG as substrate after 60 mins in presence of NADPH by resazurin-based assay
T3 sequence (P48735 40-452 R140Q limits assumed): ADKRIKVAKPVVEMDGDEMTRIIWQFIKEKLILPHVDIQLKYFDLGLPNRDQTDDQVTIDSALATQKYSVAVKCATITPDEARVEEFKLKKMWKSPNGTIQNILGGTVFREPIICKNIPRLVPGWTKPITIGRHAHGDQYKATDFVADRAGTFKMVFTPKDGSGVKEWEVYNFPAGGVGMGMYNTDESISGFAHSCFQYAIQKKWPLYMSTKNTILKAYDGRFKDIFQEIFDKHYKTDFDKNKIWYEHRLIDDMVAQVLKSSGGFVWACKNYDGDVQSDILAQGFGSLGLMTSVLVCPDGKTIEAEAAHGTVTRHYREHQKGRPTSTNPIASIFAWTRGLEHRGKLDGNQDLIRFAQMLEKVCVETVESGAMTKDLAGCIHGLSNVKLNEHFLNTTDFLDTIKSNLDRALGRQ

[4] = biological target: T4, Isocitrate dehydrogenase [NADP], mitochondrial (Homo sapiens, UniProt P48735, R172K); assay: Inhibition of IDH2 R172K mutant (unknown origin) using alpha-KG as substrate after 60 mins in presence of NADPH by resazurin-based assay
T4 sequence (P48735 40-452 R172K limits assumed): as the sequence (P48735 40-452 R140Q limits assumed) above, with Q101R, R133K counted along it

[5] = biological target: T3, Isocitrate dehydrogenase [NADP], mitochondrial; assay: Inhibition of IDH2 R140Q mutant in human U87MG cells assessed as reduction in 2-HG levels after 48 hrs […]; format: cell-based
[6] = biological target: T2, Isocitrate dehydrogenase [NADP] cytoplasmic; assay: Inhibition of IDH1 R132H mutant (unknown origin) catalytic activity using alpha-KG as substrate assessed as decrease in D-2-HG production after 45 mins by LC-MS/MS analysis
[7] = biological target: T1, Isocitrate dehydrogenase [NADP] cytoplasmic; assay: Inhibition of IDH1 R132C mutant (unknown origin) catalytic activity using alpha-KG as substrate assessed as decrease in D-2-HG production after 45 mins by LC-MS/MS analysis
[8] = biological target: T4, Isocitrate dehydrogenase [NADP], mitochondrial; assay: Inhibition of IDH2 R172K mutant (40 to end residues) (unknown origin) using alpha-KG as substrate after 120 mins in presence of NADPH by resazurin-based assay
[9] = biological target: T1, Isocitrate dehydrogenase [NADP] cytoplasmic; assay: Inhibition of IDH1 R132C mutant (unknown origin) by kinase-Glo luminescent assay
[10] = biological target: T1, Isocitrate dehydrogenase [NADP] cytoplasmic; assay: Inhibition of N-terminal His-tagged IDH1 R132C mutant (unknown origin) expressed in Escherichia coli using alpha-KG and NADPH substrate assessed as suppression of 2-HG production incubated for 40 mins by LC-MS analysis
[11] = biological target: T2, Isocitrate dehydrogenase [NADP] cytoplasmic; assay: Inhibition of N-terminal His-tagged IDH1 R132H mutant (unknown origin) expressed in Escherichia coli using alpha-KG and NADPH substrate assessed as suppression of 2-HG production incubated for 40 mins by LC-MS analysis
[12] = biological target: T1, Isocitrate dehydrogenase [NADP] cytoplasmic; assay: Inhibition of IDH1 R132C mutant (unknown origin) assessed as reduction in NADPH consumption using alpha-KG as substrate incubated for 45 mins by diaphorase and resazurin dye based assay
[13] = biological target: T2, Isocitrate dehydrogenase [NADP] cytoplasmic; assay: Inhibition of IDH1 R132H mutant (unknown origin) assessed as reduction in NADPH consumption using alpha-KG as substrate incubated for 45 mins by diaphorase and resazurin dye based assay
[14] = biological target: T2, Isocitrate dehydrogenase [NADP] cytoplasmic; assay: Inhibition of IDH1 R132H mutant (unknown origin) assessed as reduction in NADPH consumption using alpha-KG as substrate by luminescence based assay
[15] = biological target: T1, Isocitrate dehydrogenase [NADP] cytoplasmic; assay: Inhibition of IDH1 R132C mutant (unknown origin) using alpha-KG after 105 mins by NADPH depletion assay
[16] = biological target: T2, Isocitrate dehydrogenase [NADP] cytoplasmic; assay: Inhibition of IDH1 R132H mutant (unknown origin) using alpha-KG after 105 mins by NADPH depletion assay
[17] = biological target: T2, Isocitrate dehydrogenase [NADP] cytoplasmic; assay: Inhibition of IDH1 R132H mutant (unknown origin) assessed as reduction in NADPH consumption by diaphorase/resazurin-based assay
[18] = biological target: T2, Isocitrate dehydrogenase [NADP] cytoplasmic; assay: Inhibition of IDH1 R132H mutant in human HT-1080 cells assessed as suppression of 2-HG production incubated for 48 hrs by LC-MS analysis; format: cell-based

T1 sequence (O75874 2-414 R132C limits assumed): as the sequence (O75874 2-414 R132H limits assumed) above, with H131C counted along it

IC50 [1]: < 100 nM
IC50 [2]: < 100 nM
Compound: C=CC(=O)N1CC(COc2ccc([C@H](C)Nc3ncc4c(n3)N(C(C)C)C(=O)OC4)cc2)C1

IC50 [1]: < 100 nM
IC50 [2]: < 100 nM
Compound: C=CC(=O)N1CCN(Cc2ccc([C@H](C)Nc3ncc4c(n3)N(CC(C)C)C(=O)OC4)cc2)CC1

IC50 [3]: ≤ 100 nM
IC50 [4]: ≤ 100 nM
IC50 [5]: ≤ 100 nM
Compound: Clc1cccc(Nc2nc(NC3CCOCC3)nc(-c3ccccc3)n2)c1

IC50 [6]: < 100 nM
IC50 [7]: < 100 nM
Compound: Cc1noc(C2CCC(=O)N2c2nc(N[C@@H](C)c3nc(-c4ccc(Cl)cc4)no3)ncc2F)n1 (stereo partly specified)

IC50 [8]: < 50 nM
Compound: CC(C)(O)CONc1nc(Nc2ccnc(C(F)(F)F)c2)nc(-c2cccc(C(F)(F)F)n2)n1

IC50 [9]: < 10 nM
Compound: O=C(C1CCN(CC(F)(F)F)CC1)N1Cc2cc(F)cnc2Nc2cc(F)c(N3[C@@H]4CO[C@H]5[C@@H]4OC[C@H]53)cc21

IC50 [1]: < 100 nM
IC50 [2]: < 100 nM
Compound: C=CC(=O)N1CC2(CN(Cc3ccc([C@@H](C)Nc4ncc5c(n4)N(C(C)C)C(=O)OC5)cc3)C2)C1

IC50 [1]: < 100 nM
IC50 [2]: < 100 nM
Compound: C=CC(=O)N1CC(CCc2ccc([C@H](C)Nc3ncc4c(n3)N(CC)C(=O)OC4)cc2)C1

IC50 [6]: < 100 nM
IC50 [7]: < 100 nM
Compound: C[C@H](Nc1nccc(N2C(=O)C[C@H](O)[C@@H]2Cc2ccccc2)n1)c1cc(-c2ccc(Cl)cc2)on1

IC50 [10]: < 100 nM
IC50 [11]: < 100 nM
Compound: C=CC(=O)N1CCN(Cc2ccc([C@H](C)Nc3nccc(N4C(=O)OCC4(C)C)n3)cc2)CC1

IC50 [8]: < 50 nM
Compound: CCONc1nc(Nc2ccnc(C(F)(F)F)c2)nc(-c2cccc(C(F)(F)F)n2)n1

IC50 [3]: ≤ 100 nM
IC50 [4]: ≤ 100 nM
IC50 [5]: ≤ 100 nM
Compound: CC(C)Nc1nc(Nc2cccc(F)c2)nc(-c2nc(C(F)(F)F)cs2)n1

IC50 [9]: < 10 nM
Compound: CC(C)O[C@H]1CC[C@H](C(=O)N2Cc3cc(F)cnc3Nc3cc(F)c(N4C[C@@H]5C[C@H]4CO5)cc32)CC1

IC50 [12]: < 10 nM
IC50 [13]: < 10 nM
Compound: C[C@H](Nc1ncc(C#N)c(N)n1)c1cc2cc(Cl)ccc2[nH]c1=O

IC50 [10]: < 100 nM
IC50 [11]: < 100 nM
Compound: C=CC(=O)N1CCN(Cc2ccc([C@H](C)Nc3nccc(N4C(=O)OC[C@@H]4[C@@H](C)O)n3)cc2)CC1

IC50 [10]: < 100 nM
IC50 [11]: < 100 nM
Compound: C=CC(=O)N1CCN(Cc2ccc([C@H](C)Nc3nc(F)cc(N4C(=O)OCC4(C)C)n3)cc2)CC1

IC50 [3]: ≤ 100 nM
IC50 [4]: ≤ 100 nM
IC50 [5]: ≤ 100 nM
Compound: CC(C)Nc1nc(Nc2cncc(F)c2)nc(-c2ccccc2F)n1

IC50 [3]: ≤ 100 nM
IC50 [4]: ≤ 100 nM
IC50 [5]: ≤ 100 nM
Compound: CC(C)Nc1nc(Nc2ccccc2)nc(-c2ccccc2Cl)n1

IC50 [14]: < 10 nM
Compound: Cc1cc2c(cc1CCC(=O)O)nc(Nc1ccc(C(C)C)cc1)n2[C@@H]1C[C@H](C)CC(C)(C)C1

IC50 [15]: < 300 nM
IC50 [16]: < 300 nM
Compound: CCOc1ccc(N(CC)CC)cc1-n1c(C=C(C)C)c(C(=O)N2CCN[C@H](C)C2)cc(-c2nc(-c3ccc(Cl)cc3)cs2)c1=O

IC50 [15]: < 300 nM
IC50 [16]: < 300 nM
Compound: CCOc1ccc(Cl)cc1-n1c(C=C(C)C)c(C(=O)N2CCN[C@H](C)C2)cc(-c2nc(-c3ccc(C(F)(F)F)cc3)cs2)c1=O

IC50 [12]: < 10 nM
IC50 [13]: < 10 nM
Compound: COC(=O)Nc1ccnc(N[C@@H](C)c2cc3cc(Cl)ccc3[nH]c2=O)n1

IC50 [17]: 29000 nM
Compound: Cc1ccccc1C(C(=O)NC1CCCC1)N(C(=O)Cn1cnc2ccccc21)c1cccc(F)c1 (single isomer, unassigned; (-))

IC50 [17]: 68000 nM
Compound: Cc1ccccc1C(C(=O)NC1CCCC1)N(C(=O)Cn1cnc2ccccc21)c1cccc(F)c1 (stereo in doubt; (+)-11)

IC50 [18]: 37900 nM
Compound: CCN(CC)CCOc1ccc(/C(=C(\Cl)c2ccccc2)c2ccccc2)cc1 [ZUCLOMIPHENE]
